# Columns and labels:
# [1] = Stability investigation of related substance (capsules); format: physicochemical; details: 0 day
# From the text: The capsules provided by the present invention were taken and separately put under the conditions shown in Table 18 to investigate the stability.
# [2] = Compatibility of raw material and auxiliary material (content measurement); format: physicochemical
# Procedure: The mixture was allowed to stand at 60° C. high temperature condition (60° C.), high humidity condition (25° C., 92.5% RH), acceleration condition (40° C.±2° C., 75% RH±5%), and light condition (4500 1×±500 1×) for 10 days and 30 days, and then taken out to detect the content and the change of the related substance.
smiles,measurement,setting,value
N#C[C@@]1(c2ccc3c(N)ncnn23)O[C@H](COC(=O)C2CCCCC2)[C@@H](O)[C@H]1O [ATV014],Impurity (%) RRT 0.42,[1],0.47%
same,Impurity (%) RRT 0.49 (0.48),[1],0.19%
same,Impurity (%) RRT 1.16,[1],0.75%
same,Impurity (%) RRT 1.42 (1.38),[1],0.53%
same,Impurity (%) RRT 1.44 (1.40),[1],0.16%
same,Impurity (%) RRT 1.70 (1.65),[1],0.04%
same,Impurity (%) Total,[1],2.10%
same,"Content measurement result, 25° C./92.5% RH, open, 10 day","[2]; 25° C./92.5% RH, 10 day",100.3%
same,"Content measurement result, 60° C., open, 10 day","[2]; 60° C., 10 day",100.3%
same,"Content measurement result, 60° C., open, 30 day","[2]; 60° C., 30 day",100.5%

# Reference: US20250032526A1, “COMPOSITION, METHOD FOR PREPARING SAME, AND USE THEREOF” (priority 2022, published 2025)
